According to ChEMBL document CHEMBL4627319, “Novel class of benzimidazole-thiazole hybrids: The privileged scaffolds of potent anti-inflammatory activity with dual inhibition of cyclooxygenase and 15-lipoxygenase enzymes” (Bioorg Med Chem, 2020):

What was measured:
[1] = biological target: Prostaglandin G/H synthase 1 (Homo sapiens, UniProt P23219); experiment: Inhibition of human COX1 expressed in CHO cells assessed as reduction in arachidonic acid-stimulated PGE2 production; format: cell-based
[2] = Inhibition of soybean 15-LOX using arachidonic acid or linoleic acid as substrate preincubated for 5 mins followed by substrate addition and measured after 10 mins by colorimetric assay; design: species or system Glycine max
[3] = biological target: T1, Prostaglandin G/H synthase 1 (Ovis aries, UniProt P05979); experiment: Inhibition of ovine COX1 using arachidonic acid as substrate preincubated for 10 mins followed by substrate addition and measured after 2 mins by EIA
T1 sequence (P05979 whole entry): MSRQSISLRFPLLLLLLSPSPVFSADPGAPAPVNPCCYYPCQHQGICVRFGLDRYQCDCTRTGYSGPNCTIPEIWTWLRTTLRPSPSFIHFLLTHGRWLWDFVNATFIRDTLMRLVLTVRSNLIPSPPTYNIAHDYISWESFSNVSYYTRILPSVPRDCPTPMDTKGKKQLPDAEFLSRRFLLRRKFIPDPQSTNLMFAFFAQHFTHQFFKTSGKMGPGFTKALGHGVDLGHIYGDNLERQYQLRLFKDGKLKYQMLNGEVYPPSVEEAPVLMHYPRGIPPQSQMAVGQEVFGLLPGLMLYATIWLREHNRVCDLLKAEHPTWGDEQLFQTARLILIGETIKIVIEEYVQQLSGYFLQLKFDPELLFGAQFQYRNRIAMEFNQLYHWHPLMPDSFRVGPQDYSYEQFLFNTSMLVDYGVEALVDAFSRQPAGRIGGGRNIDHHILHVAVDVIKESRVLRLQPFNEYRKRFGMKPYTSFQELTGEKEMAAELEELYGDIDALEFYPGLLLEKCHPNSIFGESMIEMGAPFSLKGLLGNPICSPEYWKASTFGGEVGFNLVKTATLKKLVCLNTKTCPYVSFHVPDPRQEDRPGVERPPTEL

[4] = biological target: T2, Prostaglandin G/H synthase 2 (Homo sapiens, UniProt P35354); experiment: Inhibition of COX2 (unknown origin)
T2 sequence (P35354 whole entry): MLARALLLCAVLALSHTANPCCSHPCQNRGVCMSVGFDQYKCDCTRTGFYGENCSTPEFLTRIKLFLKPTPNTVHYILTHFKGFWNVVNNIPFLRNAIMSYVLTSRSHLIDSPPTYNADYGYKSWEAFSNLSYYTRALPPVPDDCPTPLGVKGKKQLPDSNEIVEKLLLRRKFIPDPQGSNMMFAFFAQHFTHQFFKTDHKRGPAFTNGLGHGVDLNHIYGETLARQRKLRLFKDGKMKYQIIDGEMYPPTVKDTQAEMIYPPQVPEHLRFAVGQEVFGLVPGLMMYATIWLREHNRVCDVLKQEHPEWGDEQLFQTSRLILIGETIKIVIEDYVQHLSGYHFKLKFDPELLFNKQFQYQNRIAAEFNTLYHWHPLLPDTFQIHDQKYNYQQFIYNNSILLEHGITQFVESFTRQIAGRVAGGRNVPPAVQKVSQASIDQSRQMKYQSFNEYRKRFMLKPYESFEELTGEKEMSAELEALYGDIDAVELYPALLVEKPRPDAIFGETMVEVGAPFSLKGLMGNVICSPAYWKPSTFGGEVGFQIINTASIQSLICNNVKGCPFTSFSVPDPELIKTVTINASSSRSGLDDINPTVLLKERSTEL

Rattus norvegicus [5] = experiment: Antiinflammatory activity in albino rat assessed as reduction in carrageenan-induced paw edema by measuring thickness of right paw at 28 uM/kg, ip measured at 1 hr by calliper method (reference value: 7.33 +/- 0.17 cm); format: functional
Rattus norvegicus [6] = experiment: Anti-inflammatory activity in albino rat assessed as inhibition of carrageenan-induced paw edema at 28 uM/kg, ip measured at 3 hrs by calliper method relative to indomethacin; format: functional; design: scale not given: the % may be the effect or the level left
Rattus norvegicus [7] = experiment: Antiinflammatory activity in albino rat assessed as reduction in carrageenan-induced paw edema by measuring thickness of right paw at 28 uM/kg, ip measured at 0.5 hrs by calliper method (reference value: 7.33 +/- 0.17 cm); format: functional
Rattus norvegicus [8] = experiment: Anti-inflammatory activity in albino rat assessed as inhibition of carrageenan-induced paw edema at 28 uM/kg, ip measured at 3 hrs by calliper method relative to control; format: functional
Rattus norvegicus [9] = experiment: Antiinflammatory activity in albino rat assessed as reduction in carrageenan-induced paw edema by measuring thickness of right paw at 28 uM/kg, ip measured immediately by calliper method (reference value: 6.83 +/-0.17 cm); format: functional
Rattus norvegicus [10] = experiment: Antiinflammatory activity in albino rat assessed as reduction in carrageenan-induced paw edema by measuring thickness of right paw at 28 uM/kg, ip measured at 4 hrs by calliper method (reference value: 8.50 +/- 0.58 cm); format: functional
[11] = Ulcerogenic activity in albino rat assessed as effect on gastric mucosa membrane at 10 to 50 mg/kg, po measured after 6 hrs by H and E staining based light microscopic assay; format: toxicity, organism-based; conditions: in vivo
Rattus norvegicus [12] = experiment: Anti-inflammatory activity in albino rat assessed as inhibition of carrageenan-induced paw edema at 28 uM/kg, ip measured at 0.5 hrs by calliper method relative to control; format: functional
Rattus norvegicus [13] = experiment: Anti-inflammatory activity in albino rat assessed as inhibition of carrageenan-induced paw edema at 28 uM/kg, ip measured at 4 hrs by calliper method relative to control; format: functional
Rattus norvegicus [14] = experiment: Anti-inflammatory activity in albino rat assessed as inhibition of carrageenan-induced paw edema at 28 uM/kg, ip measured at 1 hr by calliper method relative to control; format: functional
Rattus norvegicus [15] = experiment: Anti-inflammatory activity in albino rat assessed as inhibition of carrageenan-induced paw edema at 28 uM/kg, ip measured at 2 hrs by calliper method relative to control; format: functional
Rattus norvegicus [16] = experiment: Antiinflammatory activity in albino rat assessed as reduction in carrageenan-induced paw edema by measuring thickness of right paw at 28 uM/kg, ip measured at 2 hrs by calliper method (reference value: 7.67 +/- 0.17 cm); format: functional
Rattus norvegicus [17] = experiment: Antiinflammatory activity in albino rat assessed as reduction in carrageenan-induced paw edema by measuring thickness of right paw at 28 uM/kg, ip measured at 3 hrs by calliper method (reference value: 7.83 +/- 0.33 cm); format: functional
Rattus norvegicus [18] = experiment: Anti-inflammatory activity in albino rat assessed as inhibition of carrageenan-induced paw edema at 28 uM/kg, ip measured at 4 hrs by calliper method relative to indomethacin; format: functional; design: scale not given: the % may be the effect or the level left
[19] = Ulcerogenic activity in albino rat assessed as congestion of blood vessel at 10 to 50 mg/kg, po measured after 6 hrs by H and E staining based light microscopic assay; format: toxicity, organism-based; conditions: in vivo
[20] = Ulcerogenic activity in albino rat assessed as damage of gastric mucosa surface epithelium at 10 to 50 mg/kg, po measured after 6 hrs by H and E staining based light microscopic assay; format: toxicity, organism-based; conditions: in vivo
[21] = Ulcerogenic activity in albino rat assessed as ulcer formation with distorted gastric gland at 10 to 50 mg/kg, po measured after 6 hrs by H and E staining based light microscopic assay; format: toxicity, organism-based; conditions: in vivo
[22] = Ulcerogenic activity in albino rat assessed as damage of scarred mucosal epithelium at 10 to 50 mg/kg, po measured after 6 hrs by H and E staining based light microscopic assay; format: toxicity, organism-based; conditions: in vivo

Chain of Prostaglandin G/H synthase 1 (Homo sapiens, UniProt P23219) (P23219 whole entry): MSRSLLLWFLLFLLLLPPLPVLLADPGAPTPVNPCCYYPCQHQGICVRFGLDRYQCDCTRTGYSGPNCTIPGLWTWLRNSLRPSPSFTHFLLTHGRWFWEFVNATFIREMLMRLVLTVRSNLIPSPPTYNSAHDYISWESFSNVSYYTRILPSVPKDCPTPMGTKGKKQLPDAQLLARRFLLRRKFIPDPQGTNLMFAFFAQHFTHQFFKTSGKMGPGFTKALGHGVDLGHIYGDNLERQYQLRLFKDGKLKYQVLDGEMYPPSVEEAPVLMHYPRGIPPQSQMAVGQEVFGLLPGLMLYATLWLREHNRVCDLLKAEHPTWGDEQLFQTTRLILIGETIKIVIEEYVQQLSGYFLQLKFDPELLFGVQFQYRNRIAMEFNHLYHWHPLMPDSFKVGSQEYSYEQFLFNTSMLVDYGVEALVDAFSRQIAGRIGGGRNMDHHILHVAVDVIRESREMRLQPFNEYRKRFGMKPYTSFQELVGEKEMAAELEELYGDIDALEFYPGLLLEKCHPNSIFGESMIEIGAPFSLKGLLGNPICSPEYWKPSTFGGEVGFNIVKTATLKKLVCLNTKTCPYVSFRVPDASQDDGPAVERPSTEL

CS(=O)(=O)c1ccc(-c2c(-c3ccccc3)nc3sccn23)cc1
IC50 [1]: > 50 µM

CSc1nc2ccccc2n1-c1csc(NC(=O)c2ccccc2)n1
IC50 [2]: 4.12 µM
IC50 [3]: 5.33 µM

CSc1nc2ccccc2n1-c1csc(N)n1
IC50 [2]: 6.56 µM
IC50 [3]: 4.17 µM

CSc1nc2ccccc2n1-c1csc2nc(-c3ccccc3)cn12
IC50 [2]: 5.46 µM
IC50 [3]: 5.97 µM

O=[N+]([O-])c1ccc(-c2nnc(Cn3c(CN4CCCCC4)nc4ccccc43)o2)cc1
IC50 [4]: 0.06 to 0.81 µM

Clc1ccc(-c2nnc(Cn3c(CN4CCCCC4)nc4ccccc43)o2)cc1
IC50 [4]: 0.06 to 0.81 µM

CCn1c(-n2cc(/C=N/N=C3/NC(=O)CS3)c(-c3ccc(OC)cc3)n2)nc2c1c(=O)n(C)c(=O)n2C
IC50 [2]: 1.98 µM

CCn1c(-n2cc(/C=N/N=c3\[nH]c(-c4ccc(Br)cc4)cs3)c(-c3ccc(OC)cc3)n2)nc2c1c(=O)n(C)c(=O)n2C
IC50 [2]: 1.76 µM

CSc1nc2ccccc2n1-c1csc(=N)n1CC(=O)c1ccccc1
IC50 [2]: 3.98 µM
IC50 [3]: 9.84 µM

CSc1nc2ccccc2n1-c1csc(NC(=O)c2ccc(C)cc2)n1
IC50 [2]: 4.96 µM
IC50 [3]: 6.23 µM

CSc1nc2ccccc2n1-c1csc(NC/C(C)=N/N=c2\scc(-c3ccccc3)n2-c2ccccc2)n1
IC50 [2]: 1.85 µM
IC50 [3]: 12.4 µM

O=C1N/C(=N\c2nnc(-c3ccc(O)cc3)s2)S/C1=C\c1ccc(Cl)c(Cl)c1
IC50 [2]: 11.9 µM

CSc1nc2ccccc2n1-c1csc(NCC(=O)c2ccc(Cl)cc2)n1
IC50 [2]: 4.15 µM
IC50 [3]: 8.14 µM

Fc1ccccc1-c1nnc(Cn2c(CN3CCCCC3)nc3ccccc32)o1
IC50 [4]: 0.06 to 0.81 µM

CCn1c(-n2cc(/C=N/N=c3\scc(-c4ccc(Br)cc4)n3-c3ccccc3)c(-c3ccc(OC)cc3)n2)nc2c1c(=O)n(C)c(=O)n2C
IC50 [2]: 1.82 µM

CSc1nc2ccccc2n1-c1csc(NC/C(C)=N/N=C2\SCC(=O)N2c2ccccc2)n1
Activity (Rattus norvegicus [5]): 4.67 cm
Activity (Rattus norvegicus [6]): 119.4%
IC50 [2]: 1.96 µM
Activity (Rattus norvegicus [7]): 5.67 cm
inhibition (INH) (Rattus norvegicus [8]): 82.83%
IC50 [3]: 10.6 µM
Activity (Rattus norvegicus [9]): 7 cm
Activity (Rattus norvegicus [10]): 4.5 cm
Activity [11]: Non-Toxic
inhibition (INH) (Rattus norvegicus [12]): 38.4%
inhibition (INH) (Rattus norvegicus [13]): 80.57%
inhibition (INH) (Rattus norvegicus [14]): 61.6%
inhibition (INH) (Rattus norvegicus [15]): 74.83%
Activity (Rattus norvegicus [16]): 4.17 cm
Activity (Rattus norvegicus [17]): 3.83 cm
Activity (Rattus norvegicus [18]): 102.21%
Activity [19]: Toxic

CSc1nc2ccccc2n1-c1csc(NC/C(C)=N/N=c2\scc(-c3ccc(C)cc3)n2-c2ccccc2)n1
IC50 [2]: 2.14 µM
IC50 [3]: 13.2 µM

CSc1nc2ccccc2n1-c1csc(NCC(C)=O)n1
IC50 [2]: 2.93 µM
IC50 [3]: 11.7 µM

CSc1nc2ccccc2n1-c1csc(NC/C(C)=N/N=c2\scc(-c3ccc(Cl)cc3)n2-c2ccccc2)n1
Activity (Rattus norvegicus [5]): 5.33 cm
Activity (Rattus norvegicus [6]): 109.08%
IC50 [2]: 1.67 µM
Activity (Rattus norvegicus [7]): 6.33 cm
inhibition (INH) (Rattus norvegicus [8]): 75.67%
IC50 [3]: 13.2 µM
Activity (Rattus norvegicus [9]): 7.17 cm
Activity (Rattus norvegicus [10]): 5.67 cm
inhibition (INH) (Rattus norvegicus [12]): 22.67%
inhibition (INH) (Rattus norvegicus [14]): 46.27%
inhibition (INH) (Rattus norvegicus [15]): 56.67%
Activity (Rattus norvegicus [16]): 5 cm
Activity (Rattus norvegicus [17]): 4.67 cm
Activity (Rattus norvegicus [18]): 93.2%

Fc1ccc(-c2nnc(Cn3c(CN4CCCCC4)nc4ccccc43)o2)cc1
IC50 [4]: 0.06 to 0.81 µM

CSc1nc2ccccc2n1-c1csc(NC/C(C)=N/NC(=S)Nc2ccccc2)n1
Activity (Rattus norvegicus [5]): 5 cm
Activity (Rattus norvegicus [6]): 102.31%
IC50 [2]: 2.98 µM
Activity (Rattus norvegicus [7]): 5.67 cm
inhibition (INH) (Rattus norvegicus [8]): 70.97%
IC50 [3]: 10.7 µM
Activity (Rattus norvegicus [9]): 7.33 cm
Activity (Rattus norvegicus [10]): 5.5 cm
inhibition (INH) (Rattus norvegicus [12]): 38.43%
inhibition (INH) (Rattus norvegicus [13]): 68.8%
inhibition (INH) (Rattus norvegicus [14]): 53.73%
inhibition (INH) (Rattus norvegicus [15]): 64.1%
Activity (Rattus norvegicus [16]): 4.67 cm
Activity (Rattus norvegicus [17]): 4.83 cm
Activity (Rattus norvegicus [18]): 87.28%

CSc1nc2ccccc2n1-c1csc(NC(=O)c2ccc(Cl)cc2)n1
IC50 [2]: 5.11 µM
IC50 [3]: 7.11 µM

COc1ccc2c(c1)c(CC(=O)O)c(C)n2C(=O)c1ccc(Cl)cc1 [INDOMETHACIN]
Activity [20]: Toxic
Activity [21]: Toxic
Activity (Rattus norvegicus [5]): 5 cm
Activity [22]: Toxic
Activity (Rattus norvegicus [7]): 5.83 cm
inhibition (INH) (Rattus norvegicus [8]): 69.37%
Activity (Rattus norvegicus [9]): 7.17 cm
Activity (Rattus norvegicus [10]): 4.17 cm
inhibition (INH) (Rattus norvegicus [12]): 34.7%
inhibition (INH) (Rattus norvegicus [13]): 78.83%
inhibition (INH) (Rattus norvegicus [14]): 54.17%
inhibition (INH) (Rattus norvegicus [15]): 63.7%
Activity (Rattus norvegicus [16]): 4.67 cm
Activity (Rattus norvegicus [17]): 4.5 cm
Activity [19]: Toxic

O=c1c(O)c(-c2ccc(O)c(O)c2)oc2cc(O)cc(O)c12 [QUERCETIN]
IC50 [2]: 3.34 µM
